In patent US20190038714A1, “ANTI-INFLAMMATORY COMPOSITION COMPRISING CLAVASPIRIN PEPTIDE ANALOGUE AS EFFECTIVE INGREDIENT” (INDUSTRY-ACADEMIC COOPERATION FOUNDATION, CHOSUN UNIVERSITY, priority 2015, published 2019):
Ends that are not written are not given here.

Columns and labels:
[1] = test system: Bacillus subtilis, KCTC 1918; experiment: Growth minimum inhibitory concentration (MIC), microtiter broth dilution; assay type: cell-based; conditions: B. subtilis; 12 hours at 37° C.
Description: (§1) To compare the antimicrobial activity of the peptide produced by the method of Example 1, the inventors of the present invention measured the growth minimum inhibitory concentration (MIC), which is minimum concentration of the peptide showing no dissociation of bacterial cells.
(§2) Specifically, E. coli (Escherichia coli, ATCC 25922), and P. aeruginosa (Pseudomonas aeruginosa, ATCC 15692), S. typhimurium (Salmonella typhimurium, KTCC 1926), and P. vulgaris (Proteus vulgaris, KCTC 2433 as Gram-negative bacteria, and S. aureus (Staphylococcus aureus, ATCC 25923), L. monocytogenes (Listeria monocytogenes, ATCC 19115), B. subtilis (Bacillus subtilis, KCTC 1918), and S. epidermidis (Staphylococcus epidermidis, KCTC 3096) as Gram-positive bacteria were used after obtaining them from American Type Culture Collection (ATCC) or Korean Cell Line Bank. Each bacterial cell line was cultured in LB medium (1% bacto tryptone, 0.5% bacto yeast extract, and 1% sodium chloride; Sigma, USA) to a mid-log phase at pH of 5.5 or 7.4. After that, the cells were diluted in 1% bacto peptone medium (Difco, USA) to have cell body concentration of 5×10^5 cells/100 μl, and then inoculated to a microtiter plate (NUNC, USA). Thereafter, each of CSP-4 peptide synthesized in Example 1 above and the mother peptide was diluted, 1/2 times for each, at pH of 5.5 or 7.4 in a 96-well plate. After adding the cells to the plate, the cells were cultured for 12 hours at 37° C. Then, the absorbance was measured at a wavelength of 620 nm by using a microtiter plate reader (Merck Elisa reader, Germany) to determine the MIC value of each bacterial strain.

[2] = test system: Escherichia coli, ATCC 25922; experiment: as above; assay type: cell-based; conditions: 12 hours at 37° C., pH of 5.5 or 7.4 (not given)
Description: as §1, §2

[3] = test system: Proteus vulgaris, KCTC 2433; experiment: as above; assay type: cell-based; conditions: P. vulgaris; 12 hours at 37° C.
Description: as §1, §2

[4] = test system: Pseudomonas aeruginosa, ATCC 15692; experiment: as above; assay type: cell-based; conditions: P. aeruginosa; 12 hours at 37° C.
Description: as §1, §2

[5] = test system: Salmonella typhimurium, KTCC 1926; experiment: as above; assay type: cell-based; conditions: S. typhimurium; 12 hours at 37° C.
Description: as §1, §2

[6] = test system: Staphylococcus aureus, ATCC 25923; experiment: as above; assay type: cell-based; conditions: S. aureus; 12 hours at 37° C.
Description: as §1, §2

[7] = test system: Staphylococcus epidermidis, KCTC 3096; experiment: as above; assay type: cell-based; conditions: S. epidermidis; 12 hours at 37° C.
Description: as §1, §2

human erythrocyte = experiment: Erythrocyte hemolytic activity; assay type: cell-based; conditions: for Erythrocyte disrupting ability %: 1 hour at 37° C., Triton X-100 = 100%
Protocol: To compare the cytotoxicity among the peptides that are produced by the method of Example 1, erythrocyte hemolytic activity of the synthesized peptide was measured.
Specifically, human erythrocyte was diluted in physiological saline (PBS, pH 7.0) to have concentration of 8%, and clavaspirin, CSP-4, and melittin peptide were serially diluted (i.e., dilution to 1/2 concentration from higher concentration for each dilution) followed by reaction for 1 hour at 37° C. After that, the amount of hemoglobin contained in a supernatant collected by centrifuge at 1,000×g was determined by measuring the absorbance at a wavelength of 414 nm. As a control group to be used as a reference for cell disruption level, the supernatant collected by a treatment with 1% Triton X-100 (Sigma, USA) and a reaction for 1 hour at 37° C. was used for absorbance measurement. By setting the erythrocyte hemolytic activity of Triton X-100 at 100%, the hemolytic activity of the above peptides was calculated using the following mathematical equation 1.
Erythrocyte disrupting ability (hemolysis) (%)=(Absorbance A−Absorbance B)/(Absorbance C−Absorbance B)×100 [Mathematical equation 1]
(in the above equation, Absorbance A indicates the absorbance of a reaction solution treated with each peptide, in which the absorbance is measured at a wavelength of 414 nm; Absorbance B indicates the absorbance of a reaction solution treated with PBS, in which the absorbance is measured at a wavelength of 414 nm; and Absorbance C indicates the absorbance of a reaction solution treated with 1% Triton X-100, in which the absorbance is measured at a wavelength of 414 nm).

[8] = Cytotoxicity in normal cell line (MTT); assay type: cell-based, human; conditions: human, HaCaT cells (keratinocyte cell line), HaCaT, 24 hours, MTT, read-out: Cell survival ability %; for viability at 24 h, 25 µM: peptide 25 μM; for viability at 24 h, 50 µM: peptide 50 μM; for viability at 24 h, 100 µM: peptide 100 μM; for viability at 24 h, 200 µM: peptide 200 μM; for viability at 24 h, 400 µM: peptide 400 μM
Protocol: To determine the cytotoxicity of the peptide produced by the method of Example 1 in normal cell line, toxicity was measured by using human keratinocyte forming cell line (HaCaT cell line, Dr. NE. Fusenig, Heidelberg, Germany).
Specifically, HaCaT cells which have been cultured in DMEM medium containing 10% FBS (Fetal Bovine Serum) were aliquoted in a 96-well plate (3×10^3 cells/well). […] After the culture, a reaction solution containing 5 mg/ml MTT (Thiazolyl Blue Tetrazolium Bromide) dissolved in physiological saline (PBS) was added in an amount of 20 μl to each well and allowed to react for 4 hours. After that, the supernatant was removed, and, by dissolving the formed MTT crystals by adding 200 μl of DMSO, the absorbance at 560 nm was measured to determine the cell survival ability.

S. aureus = conditions: 24 hours at 37° C.
S. aureus MRSA 0027 = conditions: 24 hours at 37° C.
S. aureus MRSA 1635 = conditions: 24 hours at 37° C.
S. aureus MRSA 4761 = conditions: 24 hours at 37° C.
S. aureus MRSA 3-359 = conditions: 24 hours at 37° C.
S. aureus MRSA 1630 = conditions: 24 hours at 37° C.
S. aureus MRSA 3511 = conditions: 24 hours at 37° C.
S. aureus MRSA 3518 = conditions: 24 hours at 37° C.

## FLRFIGSVIHGIGHLVHHIGVAL-NH2 [Clavaspirin]
[1]
  Growth minimum inhibitory concentration: 16 µM
[2]
  Growth minimum inhibitory concentration: 2 µM
[3]
  Growth minimum inhibitory concentration: 8 µM
[4]
  Growth minimum inhibitory concentration: 32 µM
[5]
  Growth minimum inhibitory concentration: 32 µM
[6]
  Growth minimum inhibitory concentration: 16 µM
[7]
  Growth minimum inhibitory concentration: 4 µM
Human erythrocyte; peptide 25 μM
  Erythrocyte disrupting ability %: 100%
Human erythrocyte; peptide 50 μM
  Erythrocyte disrupting ability %: 100%
Human erythrocyte; peptide 100 μM
  Erythrocyte disrupting ability %: 100%
Human erythrocyte; peptide 200 μM
  Erythrocyte disrupting ability %: 100%
Human erythrocyte; peptide 400 μM
  Erythrocyte disrupting ability %: 100%
[8]
  viability at 24 h, 25 µM: 15%
  viability at 24 h, 50 µM: 3%
  viability at 24 h, 100 µM: 1%
  viability at 24 h, 200 µM: 1%
  viability at 24 h, 400 µM: 0%
S. aureus
  MIC: 16 µM
S. aureus MRSA 0027
  MIC: 16 µM
S. aureus MRSA 1635
  MIC: 16 µM
S. aureus MRSA 4761
  MIC: 32 µM
S. aureus MRSA 3-359
  MIC: 16 µM
S. aureus MRSA 1630
  MIC: 8 µM
S. aureus MRSA 3511
  MIC: 8 µM
S. aureus MRSA 3518
  MIC: 8 µM

## FLRFIGSVKHGKGHLVHHIGVAL-NH2 [CSP-4]
[1]
  Growth minimum inhibitory concentration: 4 µM
[2]
  Growth minimum inhibitory concentration: 2 µM
[3]
  Growth minimum inhibitory concentration: 4 µM
[4]
  Growth minimum inhibitory concentration: 32 µM
[5]
  Growth minimum inhibitory concentration: 64 µM
[6]
  Growth minimum inhibitory concentration: 8 µM
[7]
  Growth minimum inhibitory concentration: 4 µM
Human erythrocyte; at 500 μg/ml
  hemolysis (FIG. 1): less than 1%
Human erythrocyte; concentration of 200 μM or less
  hemolytic activity: almost no hemolytic activity
Human erythrocyte; peptide 25 μM
  Erythrocyte disrupting ability %: 0%
Human erythrocyte; peptide 50 μM
  Erythrocyte disrupting ability %: 0%
Human erythrocyte; peptide 100 μM
  Erythrocyte disrupting ability %: 0%
Human erythrocyte; peptide 200 μM
  Erythrocyte disrupting ability %: 1%
Human erythrocyte; peptide 400 μM
  Erythrocyte disrupting ability %: 10%
[8]
  viability at 24 h, 25 µM: 100%
  viability at 24 h, 50 µM: 100%
  viability at 24 h, 100 µM: 100%
  viability at 24 h, 200 µM: 100%
  viability at 24 h, 400 µM: 88%
S. aureus
  MIC: 8 µM
S. aureus MRSA 0027
  MIC: 8 µM
S. aureus MRSA 1635
  MIC: 8 µM
S. aureus MRSA 4761
  MIC: 8 µM
S. aureus MRSA 3-359
  MIC: 8 µM
S. aureus MRSA 1630
  MIC: 8 µM
S. aureus MRSA 3511
  MIC: 8 µM
S. aureus MRSA 3518
  MIC: 8 µM
